Laboratory results as given in patent US20260092085A1, “SYNTHETIC TRIPLEX PEPTIDE NUCLEIC ACID-BASED INHIBITORS FOR CANCER THERAPY” (University of Connecticut, priority 2022, published 2026).
{RR} = two arginine residues at the PNA terminus

Test system: miR-155
Test: miR-155 gene expression in U2932 tumor samples after in vivo treatment
Design: species or system NSG mice
Details: U2932 xenograft, intra-tumoral
Method: FIGS. 22A-D show in vivo gene expression and protein level analysis. (22A) miR-155 gene expression levels in U2932 tumor samples after in vivo treatment with indicated PNAs. Data was normalized with average control U6 (n=4, data represented as mean±standard error mean). ***p<0.001 (22B) Gene expression level of downstream target genes of miR-155: MCL1 in U2932 tumor samples after treatment with total 3 mg kg-1 dose of Scr-γtcPNA-155, PNA-155, γPNA-155 and γtcPNA-155 and normalized with average control GAPDH (n=3, data represented as mean±SEM), unpaired two-tailed t-test was performed for analysis). *p<0.05, **p<0.01 (22C) Representative western blot of Mcl-1 protein and its quantification (n=3 technical replicate) in U2932 tumor samples treated with total 3 mg kg-1 dose of Scr-γtcPNA-155, PNA-155 and γtcPNA-155. Data is represented as mean±SEM and unpaired two-tailed t-test was performed for analysis. *p<0.05. The relative protein levels were determined from the band intensity using ImageJ software and normalized relative to loading control and treatment control. (22D) Gene expression level of tumor suppressor proteins (FOXO3A, CUX1, SOCS1, CSF1R, JARID2, SHIP1, PICALM, PDCD4, BACH1, CASP3) in U2932 tumor samples after treatment with total 3 mg kg-1 dose of Scr-γtcPNA-155, PNA-155, γPNA-155 and γtcPNA-155 and normalized with average control GAPDH (n=3, data represented as mean±SEM, unpaired two-tailed t-test was performed for statistical analysis). *p<0.05, **p<0.01.
RNA and Protein extraction from tumor samples: The mice were injected intra-tumorally with 1 mg kg-1 dose of PNA-155, γtcPNA-155, γPNA-155, Scr-γtcPNA-155 or were untreated. The injections were repeated two additional times after 1 week each. The length, breadth, and depth of the tumors were measured daily using a vernier caliper. The mice were euthanized when the tumor volumes reached 2000 mm^3. The resected tumor sections were finely minced using a sterile blade and suspended in dissociation media (4 ml) comprising of RPMI-1640, 1.2 mg/ml dispase, and 0.5 mg/ml collagenase for 90 mins at 500 rpm at 37° C. The dissociated tumors were washed with buffer saline at 2500 rpm (4 mins) at 4° C. and then suspended in 0.25% trypsin for 4 mins at room temperature. RPMI 1640 media was added to the trypsinized tumor mass, and the cells were passed through a 70 um filter. The cells were centrifuged at 2500 rpm for 4 mins at 4° C. The cell pellet was then suspended in 1×RBC lysis buffer (Sigma) and incubated on ice for 10 mins. PBS was added to the cells and the cells were passed through a 40 um filter. The cells were centrifuged at 2500 rpm for 4 mins at 4° C. The cell pellet was resuspended in 0.5% BSA in PBS. […]

Substance | decrease in miR-155 gene expression in tumors [%]
PNA-155: conventional full-length regular PNA (23mer), RR-ACCCCTATCACGATTAGCATTAA-RR, SEQ ID NO: 1 (all peptide nucleic acid (PNA), 5' {RR}, 3' {RR}) [reference compound] | 75
γtcPNA-155: serine gamma tail-clamp anti-miR-155 PNA, RR-TJJJJ-OOO-ACCCCTATCACGATTAGCATTAA-RR, SEQ ID NO: 3 (all peptide nucleic acid (PNA); serine gamma PNA, tail-clamp TJJJJ via linkers, Arg-Arg at both ends) | 90
